Data taken from patent US20220023258A1, “METHODS OF TREATING CONDITIONS RELATED TO THE S1P1 RECEPTOR” (Arena Pharmaceuticals, Inc., priority 2018, published 2022).

Legend:
[1] = system: male Sprague-Dawley rats; conditions: see WO2010/011316, Example 9; cited from earlier work
[2] = system: subjects; assay: Phase 1 single dose study: safety and tolerability
Protocol: A phase 1 study with Compound 1 was conducted with single dosing at 0.1 mg, 0.35 mg, 1 mg, 3 mg, and 5 mg. Compound 1 was administered as the L-arginine salt.

[3] = system: peripheral blood lymphocyte (PBL) counts; assay: Phase 1 single dose study: peripheral blood lymphocyte counts; type: in vivo, human
Protocol: Compound 1 was administered as the L-arginine salt.

O=C(O)C[C@H]1CCc2c1[nH]c1ccc(OCc3ccc(C4CCCC4)c(C(F)(F)F)c3)cc21 [Compound 1, (R)-2-(7-(4-cyclopentyl-3-(trifluoromethyl)benzyloxy)-1,2,3,4-tetrahydrocyclopenta[b]indol-3-yl)acetic acid]
bradycardia [1]: no or substantially no bradycardia | other safety issues (vital signs, ECGs, pulmonary function tests, ophthalmoscopy, clinical laboratory tests) ([2]; in vivo): no other clinically significant safety issues | maximum tolerated dose ([2]; single dosing): 3 mg | deaths or serious adverse events ([2]; single dosing 0.1-5 mg): no deaths or serious adverse events | PBL counts reduced ([3]; single dose 3 mg): ~40% | PBL counts reduced ([3]; single dose 5 mg): ~55% | absolute number of peripheral blood B cells, T cells, NK cells, and all T cell subsets except TEM cells ([3]; single dose 3 and 5 mg): dose responsive decline | persistence of PBL nadir ([3]; single dosing): 24 h | time after dosing by which total PBL counts were reduced ([3]; single dosing): 2 to 4 h | time of nadir of total PBL counts ([3]; single dosing): ≤ 8 h | recovery of PBL counts to baseline ([3]; single dosing, after nadir period): 4 days
